Experimental data reported in patent publication US20260115190A1, “DISPERSIONS OF ETRUMADENANT” (Arcus Biosciences, Inc., priority 2022, published 2026).
Read-outs that look alike come from different tables or passages of the source.

Experiments:
[1] = test system: CYP3A4, CYP2C8, and uridine 5′-diphospho glucuronosyltransferase (UGT) enzyme isoforms; experiment: In vitro metabolism of etrumadenant; format: in vitro ADME; settings: in vitro data
P-gp = P-gp (Homo sapiens, UniProt P08183); experiment: In vitro transporter substrate data (P-gp); format: in vitro ADME
Chain of P-gp (P08183 whole entry): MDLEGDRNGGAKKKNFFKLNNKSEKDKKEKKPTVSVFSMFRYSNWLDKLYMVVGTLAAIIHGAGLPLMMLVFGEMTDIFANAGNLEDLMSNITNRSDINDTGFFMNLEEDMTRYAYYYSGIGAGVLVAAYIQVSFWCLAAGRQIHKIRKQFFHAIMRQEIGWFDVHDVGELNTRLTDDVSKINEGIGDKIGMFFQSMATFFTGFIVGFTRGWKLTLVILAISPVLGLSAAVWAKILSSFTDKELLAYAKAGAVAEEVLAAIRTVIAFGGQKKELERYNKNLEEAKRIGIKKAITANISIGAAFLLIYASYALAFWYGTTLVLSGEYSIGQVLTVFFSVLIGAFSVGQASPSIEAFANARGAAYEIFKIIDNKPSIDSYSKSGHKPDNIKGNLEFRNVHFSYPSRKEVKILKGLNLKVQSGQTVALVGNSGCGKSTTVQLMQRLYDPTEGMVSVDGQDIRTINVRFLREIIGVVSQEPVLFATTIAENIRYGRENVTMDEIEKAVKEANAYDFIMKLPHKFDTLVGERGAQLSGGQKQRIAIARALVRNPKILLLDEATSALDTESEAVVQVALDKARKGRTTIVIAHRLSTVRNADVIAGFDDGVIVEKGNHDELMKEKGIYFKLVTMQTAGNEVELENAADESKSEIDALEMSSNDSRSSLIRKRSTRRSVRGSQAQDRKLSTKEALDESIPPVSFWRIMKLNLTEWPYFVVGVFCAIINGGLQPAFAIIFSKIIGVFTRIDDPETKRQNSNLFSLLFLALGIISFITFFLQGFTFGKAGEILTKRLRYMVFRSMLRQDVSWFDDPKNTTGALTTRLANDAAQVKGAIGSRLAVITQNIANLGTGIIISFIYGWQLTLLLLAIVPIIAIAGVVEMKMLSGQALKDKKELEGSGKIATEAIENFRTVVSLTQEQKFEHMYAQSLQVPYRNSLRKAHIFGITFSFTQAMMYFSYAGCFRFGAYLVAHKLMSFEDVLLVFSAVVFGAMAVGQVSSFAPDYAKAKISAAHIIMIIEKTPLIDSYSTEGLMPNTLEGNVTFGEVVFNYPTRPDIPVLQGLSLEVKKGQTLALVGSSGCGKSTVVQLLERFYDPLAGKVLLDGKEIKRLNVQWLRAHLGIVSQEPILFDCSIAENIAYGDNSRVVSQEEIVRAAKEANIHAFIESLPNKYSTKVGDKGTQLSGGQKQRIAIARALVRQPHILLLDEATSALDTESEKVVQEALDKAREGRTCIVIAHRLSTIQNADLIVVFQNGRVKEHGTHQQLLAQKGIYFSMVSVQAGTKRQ

[2] = Non-sink dissolution (0.1N HCl to FaSSIF gastric transfer); format: physicochemical
Procedure: In vitro drug dissolution performance for each dispersion was evaluated under non-sink conditions in a two-stage process that simulates pH and bile salt concentrations for both gastric and intestinal exposure. In vitro dissolution testing under non-sink conditions allows for a direct evaluation of each dispersion's ability to generate and maintain supersaturation above crystalline etrumadenant's solubility; was used as a predictive surrogate for ensuring product quality and in vivo performance; and is an effective test to discriminate between formulations at a given stability condition.
To begin dissolution (t=0), a sample of SDI powder was briefly suspended in 4 mL of FaSSIF (2 mg/mL SIF in 100 mM PBS) and then transferred into 50 mL SGF (0.1 N HCl (aq)) pre-heated to 37° C. in a USP Type 2 mini-vessel (100 mL total vessel volume) with stirring (paddles) at 100 rpm. At 30 minutes, a gastric transfer step was performed wherein the volume in each dissolution vessel was approximately doubled using 2×FaSSIF (4.48 mg/mL SIF powder (BioRelevant)), resulting in a final pH of 6.8 in a total volume of 100 mL. Samples taken before and after this transfer at indicated times were evaluated for drug concentration by HPLC. The drug concentrations measured in this test are a composite of SDI free drug, drug in micelles, and drug suspended in solution. A summary of the dissolution and HPLC parameters are shown in Table 6 and Table 7, respectively.

[3] = IV reference AUClast in beagle dogs; settings: dog, in vivo, IV at 5 mg/kg
[4] = Drug-drug interaction study with itraconazole; format: in vivo, humans; settings: for CL/F / Kel / Vd/F / half-life: arithmetic mean ± SD; for AUC % ex / AUC from 0 to 24 h (AUC0-24) / AUC(0-t) / AUC(0-inf) / Cmax: geometric mean; for AUC from 0 to 24 h (AUC0-24) / AUC(0-t) / Vd/F / half-life / AUC(0-inf) / Cmax / Tmax: both sexes, human, plasma, oral; for Vd/F: read-out: Vz/F; for half-life: read-out: t½ (converted); for Tmax: median
Procedure: An open-label, fixed-sequence, 2-period drug-drug interaction (DDI) study was designed to evaluate the effect of multiple doses of a strong inhibitor of CYP3A4 and P-gp on the single-dose PK of etrumadenant in humans. Etrumadenant was supplied as 25 mg capsules. Itraconazole was used as the representative strong inhibitor of CYP3A4 and P-gp. It was supplied as 10 mg/mL oral solution, Sporanox® by Janssen Pharmaceuticals (or generic equivalent). Twenty (20) healthy, adult male and female (of non-childbearing potential) participants were enrolled. Screening of participants occurred within 28 days prior to the first dosing.
On Day 1 of Period 1, a single 150 mg dose of etrumadenant was orally administered under fasting conditions (i.e., at least 10 hours of fasting prior to dosing and at least 4 hours postdose). PK sampling for etrumadenant and its metabolites was taken predose and up to 120 hours postdose. There was a washout of 5 days between the etrumadenant dose in Period 1 and the first itraconazole dose in Period 2.
In Period 2, 200 mg itraconazole was orally administered twice a day (BID) on Day 1 and once a day (QD) for 9 consecutive days (on Days 2 through 10) with a single 150 mg dose of etrumadenant orally administered 1 hour after itraconazole dosing on Day 6. Itraconazole was administered under fasting conditions. On Day 6, participants fasted for at least 10 hours prior to and at least 4 hours post etrumadenant dosing. PK sampling for etrumadenant and its metabolites was taken predose and up to 120 hours after etrumadenant dosing. PK sampling for itraconazole and 1-hydroxy-itraconazole was collected on Days 5, 6, 7, 9, and 11.
Itraconazole was administered twice on the first day of Period 2 as a loading dose to accelerate CYP3A inhibition and the inhibition was then maintained by administering itraconazole 200 mg QD for 9 consecutive days. A 200 mg BID dose level is expected to provide similar inhibition to a 400 mg QD dose. Although itraconazole reaches steady state within approximately 15 days, it has been established that QD administration of 200 mg itraconazole for 3 to 5 days allows maximum CYP3A inhibition sufficient to detect a DDI. […] As such, administration of itraconazole for at least 4 days is considered sufficient in DDI studies as a CYP3A4 and P-gp inhibitor. To maintain the level of inhibition, itraconazole was administered throughout PK sampling of etrumadenant (i.e., through Day 10 of Period 2). In addition, the itraconazole oral solution was administered under fasting conditions to maximize bioavailability.
Participants were housed on Day −1 of Period 1, at the time indicated by the clinical research unit (CRU), until after the 120-hour blood draw and completion of study procedures in Period 2. Safety was monitored throughout the study by repeated clinical and laboratory evaluations. In this study, there were no discontinued participants. All participants who received at least one dose of study drug (including participants who terminated the study early) were asked to return to the CRU approximately 14 days after the last dose for follow-up procedures, and to determine if any adverse event (AE) had occurred since the last study visit. All adverse events reported in the study were mild and resolved without treatment.

[5] = Etrumadenant 150 mg + Itraconazole
[6] = multiple doses of itraconazole compared to etrumadenant given alone

Cc1c(C#N)cccc1-c1cc(-c2cn(Cc3cccc(C(C)(C)O)n3)nn2)nc(N)n1 [Etrumadenant, 3-[2-amino-6-(1-{[6-(2-hydroxypropan-2-yl)pyridine-2-yl]methyl}-1H-1,2,3-triazol-4-yl)pyrimidin-4-yl]-2-methylbenzonitrile]
etrumadenant metabolism mediated by [1]: mediated by CYP3A4, CYP2C8, and uridine 5′-diphospho glucuronosyltransferase (UGT) enzyme isoforms | substrate of P-gp (P-gp): substrate | AUC35-210 FaSSIF ([2]; Example 4, after transfer to FaSSIF from 35 to 210 minutes): 8000 min*μgA/mL | C210 ([2]; Example 4, drug concentration at 210 minutes (180 minutes after transfer to FaSSIF)): 37.9 μgA/mL | Cmax FaSSIF ([2]; Example 4, maximum drug concentration after transfer to FaSSIF): 155.0 μgA/mL | AUC35-210 FaSSIF ([2]; Example 5, t = 0): 3800 min*μgA/mL | C210 ([2]; Example 5, t = 0): 15.5 μgA/mL | Total Drug CmaxFaSSIF ([2]; Example 5, t = 0): 129.9 μgA/mL | C210 ([2]; Example 5, t = 0, listed as AB928 starting drug substance): 15.6 μgA/mL | AUC(0-t) [3]: 25100 ng·h/mL | CL/F [4, 5]: 2.52 ± 0.842 L/h | Kel [4, 5]: 0.0255 ± 0.00605 h⁻¹ | AUC % ex [4, 5]: 4.39% | CL/F ([4]; Etrumadenant Alone, 150 mg): 4.00 ± 1.12 L/h | Kel ([4]; Etrumadenant Alone, 150 mg): 0.0249 ± 0.00663 h⁻¹ | AUC % ex ([4]; Etrumadenant Alone, 150 mg): 3.90% | AUC from 0 to 24 h (AUC0-24) ([4]; 150 mg, Etrumadenant Alone, 150 mg (6 × 25 mg capsules), fasting): 21600 ng·h/mL | AUC(0-t) ([4]; 150 mg, Etrumadenant Alone): 36500 ng·h/mL | AUC from 0 to 24 h (AUC0-24) ([4]; Etrumadenant 150 mg + Itraconazole 200 mg multiple doses): 30700 ng·h/mL | Vd/F [4, 5]: 100 ± 28.3 L | half-life [4, 5]: 28.7 ± 7.01 h | AUC(0-inf) [4, 5]: 62600 ng·h/mL | AUC(0-t) [4, 5]: 59400 ng·h/mL | Cmax [4, 5]: 3530 ng/mL | Tmax [4, 5]: 1.52 h | Vd/F ([4]; Etrumadenant Alone, 150 mg): 172 ± 64.8 L | half-life ([4]; Etrumadenant Alone, 150 mg): 29.9 ± 8.88 h | AUC(0-inf) ([4]; Etrumadenant Alone, 150 mg): 38600 ng·h/mL | Cmax ([4]; Etrumadenant Alone, 150 mg): 3000 ng/mL | Tmax ([4]; Etrumadenant Alone, 150 mg): 1.38 h | increase in etrumadenant AUCinf [4, 6]: ~62% | increase in etrumadenant AUClast [4, 6]: approximately 63% | increase in etrumadenant Cmax [4, 6]: ~18%
